Test results reported in article PMC5048153 (Scientific Reports, 2016).

Experiments:
H9C2 cells = assay: Cytotoxicity on H9C2 cells (MTT); assay type: cell-based; settings: Rattus norvegicus, 48 h
Protocol: Human normal hepatic L02 cells, human embryonic kidney cell line 293 cells (HEK293) and Rattus myoblast cell line H9C2 cells were respectively seeded in 96-well plates at a density of 4 × 10^3 cells per well and cultured in the 1640 or DMEM medium, with the supplement of 10% fetal bovine serum, penicillin (100 unit/ml), streptomycin (100 μg/ml) in a humidified incubator with 5% CO2 for 24 h. After adherence, L02, HEK293 and H9C2 cells were exposed to different compounds for another 48 h. The cytotoxicities of the compounds were evaluated by MTT method.

[1] = tested on: corticosterone-injured PC12 cells; assay: Intracellular calcium ion concentration analysis (Fura-2 AM); assay type: cell-based, rat; settings: 200 µM corticosterone and 5 µM drug
Protocol: The detailed procedures were performed according to the reported literatures. In brief, calcium ion concentration was measured by Fura-2 AM (Thermo Scientific). PC12 cells were treated with compound 6a-1 for 48 hours. Then cells were detached with 0.25% trypsin and centrifuged at 1000 r/min for 5 minutes. The supernatant was removed and the cells were stained with Fura-2 AM according to the manufacturer’s instructions. Fluorescence intensity of labeled cells was photographed for 25 random sights each group using Thermo Scientific Array Scan Infinity.

SD rats [2] = assay: Forced swim test; assay type: in vivo, rat; settings: ig. 32 mg/kg/day, days 2–15
Protocol: The detailed procedures were performed according to our previous studies. Briefly, each SD rat was placed in a vertical Plexiglas cylinder (height 50 cm; diameter 20 cm) containing 18 cm height of water at 25 ± 2 °C and was forced to swim individually for 15 min on1st day. From 2nd day to 15th day, the rats were intragastrically administered compound 6a-1 or control drugs at dosage of 32 mg/kg/day. On the 2nd day and 15th day, 30 minutes after drug treatment, each rat was placed again into water and forced to swim for 6 min. The rat behavior was recorded by a video camera placed directly facing cylinders. The duration of immobility during the last 4 minutes was analyzed by Xeye Animal behavior analysis system (Xeye Aba V3.2). The rat was considered as immobile when its moving speed was less than 20 mm/s. The dosage of is 32 mg/kg every day. The water in the cylinder was changed each trial. After each exposure, animals were partially dried with a towel and returned to their home cages. All tests were performed in a quiet room.

[3] = tested on: corticosterone injured PC12 cells; assay: Real-time PCR BDNF mRNA level; assay type: cell-based, rat; settings: 200 µM corticosterone and 5 µM drug
SD rats [4] = assay: Open field locomotor activity; assay type: in vivo, rat; settings: ig. 32 mg/kg/day, days 2–15, vs untreated rats
Protocol: The detailed procedures were performed according to our previous studies. In brief, each SD rat was placed at the center of the open field (50 × 50 cm^2 chamber, 50-cm-high walls, with a 25 cm^2 area in the middle of floor defined as the central square) for 6 min in a quiet room. The animals were gently placed in the center of the platform and were allowed to explore the surroundings. A camera was installed above the center of the field. Immediately after a rat was placed at the center in the open field, the movements and position of the animals were recorded and registered automatically by computerized system. Next test was performed after cleaning the chamber. The traveled tracks of rats were recorded for 6 minutes and the videos of the last 4 minutes were analyzed also by Xeye Animal behavior analysis system.

[5] = PAMPA-BBB literature value ref 38; cited from earlier work

SMILES: COc1cccc2c1C(=O)c1c(O)c3c(c(O)c1C2=O)C[C@@](O)(C(=O)CO)C[C@@H]3O[C@H]1C[C@H](N)[C@H](O)[C@H](C)O1 [Adriamycin]
- IC50 (H9C2 cells): 160 ± 20 nM

SMILES: CNCCC(Oc1ccc(C(F)(F)F)cc1)c1ccccc1 (centres unmarked) [Fluoxetine]
- fluorescence intensity of free intracellular calcium ion [1]: weaker fluorescence intensity than corticosterone-injured PC12 cells
- mean immobility time reduced compared to the model group (SD rats [2]): 50.7%
- BDNF mRNA level increase compared with corticosterone-injured group [3]: 32.1%
- improved travelled distance (SD rats [4]): 69.8%

SMILES: O=C1Nc2ccc(Cl)cc2C(c2ccccc2)=NC1O (centres unmarked) [Oxazepam]
- Pe, Lit. [5]: 10 *10^−6 cm/s

SMILES: CN1C(C(=O)Nc2ccccn2)=C(O)c2ccccc2S1(=O)=O [Piroxicam]
- Pe, Lit. [5]: 2.5 *10^−6 cm/s

SMILES: Cn1c(=O)c2[nH]cnc2n(C)c1=O [Theophylline]
- Pe, Lit. [5]: 0.12 *10^−6 cm/s
